Measurements from ChEMBL document CHEMBL1201862, “PubChem BioAssay data set” (2004).
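Interpolation was linear, between the two tested concentrations surrounding the appropriate level; five concentrations were tested over 48 hours in 96-well plates. GI50: concentration for 50% inhibition of growth.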 Calls of active or inactive are those of the source. No stated cut-off is given here; in the data, active = GI50 up to about 1.1 µM and inactive = higher.

Key:
Test in all cases: growth of human tumour cells (NCI), 48 h
LOX IMVI = tested on: LOX IMVI
HCC 2998 = tested on: HCC 2998
CAKI-1 = tested on: CAKI-1
SK-MEL-5 = tested on: SK-MEL-5
IGROV-1 = tested on: IGROV-1
786-0 = tested on: 786-0
NCI-H23 = tested on: NCI-H23
OVCAR-8 = tested on: OVCAR-8
UO-31 = tested on: UO-31
K562 = tested on: K562
PC-3 = tested on: PC-3
COLO 205 = tested on: COLO 205
HOP-62 = tested on: HOP-62
MOLT-4 = tested on: MOLT-4
UACC-62 = tested on: UACC-62
CCRF-CEM = tested on: CCRF-CEM
NCI-H226 = tested on: NCI-H226
SF-539 = tested on: SF-539
M14 = tested on: M14

Compound | GI50 (LOX IMVI) | GI50 (HCC 2998) | GI50 (CAKI-1) | GI50 (SK-MEL-5) | GI50 (IGROV-1) | GI50 (786-0) | GI50 (NCI-H23) | GI50 (OVCAR-8) | GI50 (UO-31) | GI50 (K562) | GI50 (PC-3) | GI50 (COLO 205) | GI50 (HOP-62) | GI50 (MOLT-4) | GI50 (UACC-62) | GI50 (CCRF-CEM) | GI50 (NCI-H226) | GI50 (SF-539) | GI50 (M14)
CO/N=C/c1c(-c2ccc(Cl)cc2)c(/C=N/OC)n2c1sc1ccccc12 | > 100 µM (inactive) | > 100 µM (inactive) | > 100 µM (inactive) | > 100 µM (inactive) | > 100 µM (inactive) | > 100 µM (inactive) | > 100 µM (inactive) | > 100 µM (inactive) | > 100 µM (inactive) | > 100 µM (inactive) | > 100 µM (inactive) | > 100 µM (inactive) | > 100 µM (inactive) | 45.5 µM (inactive) | > 100 µM (inactive) | 70.1 µM (inactive) | – | – | –
CC(=O)OCC1C(C(C)OC(C)=O)CCC2C1CCC1(C)C(OC(C)=O)CCC21 (configuration not stated) | 14.7 µM (inactive) | 18.8 µM (inactive) | 37.4 µM (inactive) | 16.6 µM (inactive) | 20 µM (inactive) | 22.6 µM (inactive) | 24.1 µM (inactive) | 19.7 µM (inactive) | 61.9 µM (inactive) | 11.2 µM (inactive) | – | – | 21.5 µM (inactive) | 16.6 µM (inactive) | 12.9 µM (inactive) | 19.8 µM (inactive) | 16.6 µM (inactive) | 17.7 µM (inactive) | 17.1 µM (inactive)
CCC(C)C(Nc1c2ccccc2nc2c(C(=O)NCCN(C)C)cccc12)C(=O)O (configuration not stated) | 4.8 µM (inactive) | – | – | 15.7 µM (inactive) | 14.7 µM (inactive) | 9.89 µM (inactive) | 20.2 µM (inactive) | 4.45 µM (inactive) | 8.83 µM (inactive) | 21.6 µM (inactive) | 14 µM (inactive) | 6.15 µM (inactive) | 13 µM (inactive) | 7.59 µM (inactive) | 15.9 µM (inactive) | 24.3 µM (inactive) | 6.92 µM (inactive) | – | 16.2 µM (inactive)
CC(=O)O[C@H]1C[C@H](O[C@H]2[C@@H](O)C[C@H](O[C@H]3[C@@H](O)C[C@H](O[C@H]4CC[C@@]5(C)[C@H](CC[C@@H]6[C@@H]5C[C@@H](O)[C@]5(C)[C@@H](C7=CC(=O)OC7)CC[C@]65O)C4)O[C@@H]3C)O[C@@H]2C)O[C@H](C)[C@H]1O[C@@H]1O[C@H](CO)[C@@H](O)[C@H](O)[C@H]1O [LANATOSIDE C] | 0.042 µM (active) | 0.148 µM (active) | 0.0336 µM (active) | 0.0465 µM (active) | 0.0435 µM (active) | 0.0322 µM (active) | 0.0193 µM (active) | 0.0612 µM (active) | 0.0559 µM (active) | 0.04 µM (active) | – | 0.136 µM (active) | 0.0264 µM (active) | 0.018 µM (active) | 0.21 µM (active) | – | 0.243 µM (active) | 0.0336 µM (active) | 0.147 µM (active)
N=C(N)NS(=O)(=O)c1ccc(NC(=O)c2cccc3c(Nc4ccc(S(=O)(=O)N=C(N)N)cc4)c4ccc(Cl)cc4nc23)cc1 | 37.2 µM (inactive) | 79.3 µM (inactive) | 94.6 µM (inactive) | 28.6 µM (inactive) | 74.8 µM (inactive) | > 100 µM (inactive) | > 100 µM (inactive) | 61.2 µM (inactive) | 50.8 µM (inactive) | 41.3 µM (inactive) | – | 47.2 µM (inactive) | 58.6 µM (inactive) | 56.2 µM (inactive) | 33.3 µM (inactive) | 55 µM (inactive) | – | > 100 µM (inactive) | 70.1 µM (inactive)
Cc1csc2c(=O)n(COCc3ccccc3)c(=O)[nH]c12 | > 100 µM (inactive) | – | > 100 µM (inactive) | 91.2 µM (inactive) | > 100 µM (inactive) | > 100 µM (inactive) | > 100 µM (inactive) | > 100 µM (inactive) | 89.5 µM (inactive) | > 100 µM (inactive) | > 100 µM (inactive) | > 100 µM (inactive) | 59.8 µM (inactive) | > 100 µM (inactive) | – | > 100 µM (inactive) | > 100 µM (inactive) | > 100 µM (inactive) | > 100 µM (inactive)
CCOC(=O)c1c[nH]c(C(=O)OCC)c1-c1cccn1-c1ccccc1 | 16.9 µM (inactive) | – | 20.9 µM (inactive) | 14.1 µM (inactive) | 10.7 µM (inactive) | 22.8 µM (inactive) | 28.5 µM (inactive) | 19.2 µM (inactive) | 18.4 µM (inactive) | 15.4 µM (inactive) | 18.7 µM (inactive) | 21.3 µM (inactive) | 18.2 µM (inactive) | 15.3 µM (inactive) | 17.4 µM (inactive) | 17.9 µM (inactive) | 15.1 µM (inactive) | – | 20.2 µM (inactive)
Oc1ccc2ccccc2c1/N=N\c1cccc2ccccc12 | > 100 µM (inactive) | – | > 100 µM (inactive) | > 100 µM (inactive) | 29.9 µM (inactive) | > 100 µM (inactive) | > 100 µM (inactive) | > 100 µM (inactive) | > 100 µM (inactive) | > 100 µM (inactive) | > 100 µM (inactive) | > 100 µM (inactive) | > 100 µM (inactive) | 93.1 µM (inactive) | > 100 µM (inactive) | 58.1 µM (inactive) | > 100 µM (inactive) | – | 95.9 µM (inactive)
CC(C)(C)[Si](C)(C)OCC1OC(n2ccc(N)nc2=O)C(O[Si](C)(C)C(C)(C)C)C1O[Si](C)(C)C(C)(C)C (configuration not stated) | 1.71 µM (inactive) | – | – | 2.01 µM (inactive) | 2.04 µM (inactive) | 1.59 µM (inactive) | – | 2.33 µM (inactive) | 1.71 µM (inactive) | – | 1.74 µM (inactive) | 3.09 µM (inactive) | 2.06 µM (inactive) | 1.47 µM (inactive) | 1.94 µM (inactive) | – | 1.36 µM (inactive) | – | 1.8 µM (inactive)
O=C(CSCC(=O)N/N=C\c1cc(Cl)cc(Cl)c1O)N/N=C\c1cc(Cl)cc(Cl)c1O | 1.38 µM (inactive) | – | 3.48 µM (inactive) | 3.42 µM (inactive) | 3.37 µM (inactive) | 6.46 µM (inactive) | 10.1 µM (inactive) | 2.1 µM (inactive) | 4 µM (inactive) | 2.37 µM (inactive) | 4.27 µM (inactive) | 6.1 µM (inactive) | 5.69 µM (inactive) | 1.63 µM (inactive) | 3.64 µM (inactive) | 0.294 µM (active) | 3.62 µM (inactive) | 2.58 µM (inactive) | 4.93 µM (inactive)
Cc1cc(Cc2c(F)c(F)c(Cc3cc(C)no3)c(F)c2F)on1 | 80.4 µM (inactive) | – | 12.2 µM (inactive) | 28.4 µM (inactive) | > 100 µM (inactive) | 38.8 µM (inactive) | 65.8 µM (inactive) | 83.9 µM (inactive) | > 100 µM (inactive) | > 100 µM (inactive) | > 100 µM (inactive) | > 100 µM (inactive) | 25.4 µM (inactive) | > 100 µM (inactive) | > 100 µM (inactive) | > 100 µM (inactive) | > 100 µM (inactive) | 47.6 µM (inactive) | > 100 µM (inactive)
C/C(=C\CO)CC/C=C(\C)CNc1ccccc1 | 57.7 µM (inactive) | – | 57.5 µM (inactive) | 16 µM (inactive) | > 100 µM (inactive) | > 100 µM (inactive) | < 0.01 µM (active) | 82.8 µM (inactive) | 38.1 µM (inactive) | 28.6 µM (inactive) | 28.8 µM (inactive) | 41.2 µM (inactive) | > 100 µM (inactive) | 13 µM (inactive) | 36.1 µM (inactive) | – | 36.9 µM (inactive) | 82.6 µM (inactive) | 62.7 µM (inactive)
COc1cc2c(cc1OC)C13CCN4C=C5CCOC6CC(=O)N2C1C6C5CC43 (configuration not stated) | > 100 µM (inactive) | – | > 100 µM (inactive) | > 100 µM (inactive) | > 100 µM (inactive) | > 100 µM (inactive) | > 100 µM (inactive) | > 100 µM (inactive) | > 100 µM (inactive) | > 100 µM (inactive) | > 100 µM (inactive) | > 100 µM (inactive) | > 100 µM (inactive) | > 100 µM (inactive) | > 100 µM (inactive) | > 100 µM (inactive) | > 100 µM (inactive) | > 100 µM (inactive) | > 100 µM (inactive)
COc1cc(/C=C2\C(=O)N(c3cccc(Cl)c3)C(c3ccccc3)S2(=O)=O)cc(OC)c1OC (configuration not stated) | 22.2 µM (inactive) | > 100 µM (inactive) | > 100 µM (inactive) | 39.2 µM (inactive) | – | 42.2 µM (inactive) | 66.2 µM (inactive) | 86.7 µM (inactive) | 32.3 µM (inactive) | 22.3 µM (inactive) | – | > 100 µM (inactive) | 85.7 µM (inactive) | 23.9 µM (inactive) | 32.7 µM (inactive) | 18.2 µM (inactive) | 89.7 µM (inactive) | 43.3 µM (inactive) | 31.3 µM (inactive)
CCCCCCCCCCCCCCCCOC[C@@H](COC(c1ccccc1)(c1ccccc1)c1ccccc1)O[PH](=S)OC (some centres not stated) | 2.98 µM (inactive) | – | 11.6 µM (inactive) | 4.81 µM (inactive) | 13.7 µM (inactive) | 6.49 µM (inactive) | 10.9 µM (inactive) | 12.1 µM (inactive) | 16.4 µM (inactive) | 16.4 µM (inactive) | 5.32 µM (inactive) | 17.9 µM (inactive) | – | 20.4 µM (inactive) | 3.81 µM (inactive) | 11.7 µM (inactive) | 19.1 µM (inactive) | 2.82 µM (inactive) | 3.3 µM (inactive)
